From patent US20240238333A1 (Penland Foundation, priority 2023, published 2024)

Key:
[1] = test system: substance P and glutamate; assay: Clinical observation of suppression of substance P and glutamate by nitrous oxide; type: in vivo
Source text: The length of treatment to suppress the severe cytokine reaction will vary and be influenced by the time to medically correct the initiating factor. […] For children, adjustments will have to be made for age and body weight. […] Other inhalants can be included in the above-compositions such as for other purposes.

[2] = at effective dosages; cited from earlier work

Compound: [N-]=[N+]=O [nitrous oxide]
- Duration of substance P suppression, average cases ([1]; average cases): 4 to 8 h
- duration of suppression of substance P and glutamate ([1]; conscious sedation levels, about 50% nitrous oxide/about 50% oxygen): 6 to 8 h
- respiratory depression, over sedation, or irritation of the lungs [2]: does not cause respiratory depression, over sedation, or irritation of the lungs
